Test results: patent US8227406B2, “Antimicrobial peptides” (Dermagen AB, priority 2006, dated 2012)
“And” between values parts separate entries of the source, which are not always exact repeats. Equal entries are not always repeated.

Key:
[1] = tested on: Staphylococcus aureus ATCC29213; test: Radial diffusion assay (RDA), S. aureus; assay type: cell-based; design: Data (RDA antimicrobial activity, single replicates) / Mean (RDA antimicrobial activity): unit not given here; details: S. aureus; for Data (RDA antimicrobial activity, single replicates): individual replicate; for Mean (RDA antimicrobial activity): mean of 3
Method: (§1) Peptides. Peptides were from Sigma-Genosys, generated by a peptide synthesis platform (PEPscreen®, Custom Peptide Libraries, SigmaGenosys). Yield was ˜1-6 mg, and peptide length 20 amino acids. MALDI-ToF Mass Spectrometry was perfomed on these peptides. Average Crude Purity of 20mers was ˜60%. Peptides were supplied lyophilized and in a 96-well tube rack. Prior to biological testing the PEPscreen peptides were diluted in dH2O (5 mM stock), and stored at −20 C. This stock solution was used for the subsequent experiments.
(§2) Eschericia coli ATCC25922, Staphylococcus aureus ATCC29213, and the fungal isolate Candida albicans ATCC90028 were obtained from the Department of Bacteriology, Lund University Hospital.
(§3) Radial diffusion assays (RDA) were performed essentially as described earlier (Lehrer, R. I., Rosenman, M., Harwig, S. S., Jackson, R. & Eisenhauer, P. (1991) Ultrasensitive assays for endogenous antimicrobial polypeptides, J Immunol Methods. 137, 167-73). Briefly, bacteria (E. coli, S. aureus) or fungi (C. albicans) were grown to midlogarithmic phase in 10 ml of full-strength (3% w/v) trypticase soy broth (TSB) (Becton-Dickinson, Cockeysville, Md.). The microorganisms were washed once with 10 mM Tris, pH 7.4. 4×10^6 bacterial cfu or 1×10^5 fungal cfu was added to 5 ml of the underlay agarose gel, consisting of 0.03% (w/v) TSB, 1% (w/v) low-electroendoosmosistype (Low-EEO) agarose (Sigma, St Louise Mo.) and a final concentration of 0.02% (v/v) Tween 20 (Sigma). The underlay was poured into a Ø 85 mm petri dish. After agarose solidified, 4 mm-diameter wells were punched and 6 μl of test sample was added to each well. Plates were incubated at 37° C. for 3 hours to allow diffusion of the peptides. The underlay gel was then covered with 5 ml of molten overlay (6% TSB and 1% Low-EEO agarose in dH2O). Antimicrobial activity of a peptide is visualized as a clear zone around each well after 18-24 hours of incubation at 37° C. for bacteria and 28° C. for Candida albicans. Other examples of peptides that were screened and found to show an increased effect against the above mentioned microorgansism are listed below. Some of the results are found in table 1c showing the effects against C. albicans, table 1d E. coli and table 1e S. aureus.

[2] = tested on: Candida albicans ATCC90028; test: Radial diffusion assay (RDA), C. albicans; assay type: cell-based; design: unit not given here; details: Table 1c; for RDA Data (single replicates), C. albicans: individual values
Method: as §1, §2, §3

[3] = tested on: Eschericia coli ATCC25922; test: Radial diffusion assay (RDA), E. coli; assay type: cell-based, Escherichia coli; design: Data (RDA antimicrobial activity, single replicates) / Mean (RDA antimicrobial activity): unit not given here; details: E. coli; for Data (RDA antimicrobial activity, single replicates): individual replicate; for Mean (RDA antimicrobial activity): mean of 3
Method: as §1, §2, §3

For “GKR-22: growth factor derived peptide, untagged parent of GKR22WWW; sequence not printed (GKRKKKGKGLGKKRDPCLRKYK; listed as Homo sapiens)”, which “Data (RDA antimicrobial activity, single replicates)” value ([1]; peptide 0.1 μM) is on record?
The value was 0.

And the “Mean (RDA antimicrobial activity)” value ([1]; peptide 0.1 μM)?
Its value is 0.00.

And the “Data (RDA antimicrobial activity, single replicates)” value ([1]; peptide 0.5 μM)?
The value was 0.

And the “Mean (RDA antimicrobial activity)” value ([1]; peptide 0.5 μM)?
Its value is 0.00.

What about the “Data (RDA antimicrobial activity, single replicates)” value ([1]; peptide 1 μM) of the same substance?
The value was 0.4 and 0.26 and 0.25.

And the “Mean (RDA antimicrobial activity)” value ([1]; peptide 1 μM)?
The value was 0.30.

What about the “Data (RDA antimicrobial activity, single replicates)” value ([1]; peptide 5 μM) of the same substance?
Its value is 1.87 and 1.67 and 2.03.

What about the “Mean (RDA antimicrobial activity)” value ([1]; peptide 5 μM) of the same substance?
Its value is 1.86.

What about the “Data (RDA antimicrobial activity, single replicates)” value ([1]; peptide 10 μM) of the same substance?
The value was 2.37 and 2.46 and 1.95.

And the “Mean (RDA antimicrobial activity)” value ([1]; peptide 10 μM)?
Its value is 2.26.

And the “Data (RDA antimicrobial activity, single replicates)” value ([1]; peptide 50 μM)?
Its value is 3.03 and 3.09 and 2.96.

What about the “Mean (RDA antimicrobial activity)” value ([1]; peptide 50 μM) of the same substance?
The value was 3.03.

What about the “Data (RDA antimicrobial activity, single replicates)” value ([1]; peptide 100 μM) of the same substance?
The value was 3.88 and 3.94 and 3.07.

And the “Mean (RDA antimicrobial activity)” value ([1]; peptide 100 μM)?
Its value is 3.63.

And the “RDA Mean, C. albicans” value ([2]; peptide 0.1 μM)?
The value was 0.00.

And the “RDA Data (single replicates), C. albicans” value (“RDA Data (single replicates)” below) ([2]; peptide 0.1 μM)?
Its value is 0.00.

And the “RDA Mean, C. albicans” value ([2]; peptide 0.5 μM)?
The value was 0.00.

What about the “RDA Data (single replicates)” value ([2]; peptide 0.5 μM) of the same substance?
Its value is 0.00.

And the “RDA Mean, C. albicans” value ([2]; peptide 1 μM)?
Its value is 0.00.

What about the “RDA Data (single replicates)” value ([2]; peptide 1 μM) of the same substance?
Its value is 0.00.

What about the “RDA Mean, C. albicans” value ([2]; peptide 5 μM) of the same substance?
Its value is 0.00.

What about the “RDA Data (single replicates)” value ([2]; peptide 5 μM) of the same substance?
The value was 0.00.

What about the “RDA Mean, C. albicans” value ([2]; peptide 10 μM) of the same substance?
Its value is 0.00.

What about the “RDA Data (single replicates)” value ([2]; peptide 10 μM) of the same substance?
The value was 0.00.

What about the “RDA Mean, C. albicans” value ([2]; peptide 50 μM) of the same substance?
The value was 1.04.

What about the “RDA Data (single replicates)” value ([2]; peptide 50 μM) of the same substance?
Its value is 1.04 and 1.08 and 1.01.

And the “RDA Mean, C. albicans” value ([2]; peptide 100 μM)?
Its value is 3.16.

What about the “RDA Data (single replicates)” value ([2]; peptide 100 μM) of the same substance?
Its value is 3.66 and 3.31 and 2.50.

And the “Data (RDA antimicrobial activity, single replicates)” value ([3]; peptide 0.1 μM)?
The value was 0.

And the “Mean (RDA antimicrobial activity)” value ([3]; peptide 0.1 μM)?
The value was 0.00.

What about the “Data (RDA antimicrobial activity, single replicates)” value ([3]; peptide 0.5 μM) of the same substance?
Its value is 0.

And the “Mean (RDA antimicrobial activity)” value ([3]; peptide 0.5 μM)?
Its value is 0.00.

And the “Data (RDA antimicrobial activity, single replicates)” value ([3]; peptide 1 μM)?
The value was 0.

What about the “Mean (RDA antimicrobial activity)” value ([3]; peptide 1 μM) of the same substance?
Its value is 0.00.

What about the “Data (RDA antimicrobial activity, single replicates)” value ([3]; peptide 5 μM) of the same substance?
Its value is 1.88 and 1.85 and 2.07.

And the “Mean (RDA antimicrobial activity)” value ([3]; peptide 5 μM)?
Its value is 1.93.

And the “Data (RDA antimicrobial activity, single replicates)” value ([3]; peptide 10 μM)?
The value was 2.07 and 3.47 and 2.74.

What about the “Mean (RDA antimicrobial activity)” value ([3]; peptide 10 μM) of the same substance?
Its value is 2.76.

And the “Data (RDA antimicrobial activity, single replicates)” value ([3]; peptide 50 μM)?
Its value is 3.68 and 3.65 and 3.61.

And the “Mean (RDA antimicrobial activity)” value ([3]; peptide 50 μM)?
The value was 3.65.

And the “Data (RDA antimicrobial activity, single replicates)” value ([3]; peptide 100 μM)?
Its value is 4.5 and 5.24 and 4.19.

And the “Mean (RDA antimicrobial activity)” value ([3]; peptide 100 μM)?
The value was 4.64.

With GKRKKKGKGLGKKRDPCLRKYKWWW [GKR-22-WWW] as the substance, how does the “Data (RDA antimicrobial activity, single replicates)” value ([1]; peptide 0.1 μM) read?
The value was 0.

And the “Mean (RDA antimicrobial activity)” value ([1]; peptide 0.1 μM)?
The value was 0.00.

And the “Data (RDA antimicrobial activity, single replicates)” value ([1]; peptide 0.5 μM)?
The value was 0.36 and 0.49 and 0.6.

And the “Mean (RDA antimicrobial activity)” value ([1]; peptide 0.5 μM)?
Its value is 0.48.

And the “Data (RDA antimicrobial activity, single replicates)” value ([1]; peptide 1 μM)?
The value was 3.6 and 3.67 and 3.78.

And the “Mean (RDA antimicrobial activity)” value ([1]; peptide 1 μM)?
The value was 3.68.

And the “Data (RDA antimicrobial activity, single replicates)” value ([1]; peptide 5 μM)?
Its value is 3.87 and 4.57 and 4.53.

And the “Mean (RDA antimicrobial activity)” value ([1]; peptide 5 μM)?
The value was 4.32.

And the “Data (RDA antimicrobial activity, single replicates)” value ([1]; peptide 10 μM)?
Its value is 6.04 and 6.87 and 5.73.

What about the “Mean (RDA antimicrobial activity)” value ([1]; peptide 10 μM) of the same substance?
Its value is 6.21.

And the “Data (RDA antimicrobial activity, single replicates)” value ([1]; peptide 50 μM)?
The value was 7.12 and 8.12 and 7.41.

What about the “Mean (RDA antimicrobial activity)” value ([1]; peptide 50 μM) of the same substance?
Its value is 7.55.

What about the “Data (RDA antimicrobial activity, single replicates)” value ([1]; peptide 100 μM) of the same substance?
Its value is 7.4 and 8.78 and 8.05.

And the “Mean (RDA antimicrobial activity)” value ([1]; peptide 100 μM)?
Its value is 8.08.

And the “RDA Mean, C. albicans” value ([2]; peptide 0.1 μM)?
Its value is 0.00.

And the “RDA Data (single replicates)” value ([2]; peptide 0.1 μM)?
The value was 0.00.

What about the “RDA Mean, C. albicans” value ([2]; peptide 0.5 μM) of the same substance?
The value was 0.00.

And the “RDA Data (single replicates)” value ([2]; peptide 0.5 μM)?
Its value is 0.00.

And the “RDA Mean, C. albicans” value ([2]; peptide 1 μM)?
Its value is 0.00.

And the “RDA Data (single replicates)” value ([2]; peptide 1 μM)?
The value was 0.00.

And the “RDA Mean, C. albicans” value ([2]; peptide 5 μM)?
Its value is 0.00.

And the “RDA Data (single replicates)” value ([2]; peptide 5 μM)?
Its value is 0.00.

What about the “RDA Mean, C. albicans” value ([2]; peptide 10 μM) of the same substance?
Its value is 0.66.

And the “RDA Data (single replicates)” value ([2]; peptide 10 μM)?
The value was 0.50 and 0.94 and 0.54.

And the “RDA Mean, C. albicans” value ([2]; peptide 50 μM)?
Its value is 1.65.

What about the “RDA Data (single replicates)” value ([2]; peptide 50 μM) of the same substance?
The value was 1.95 and 1.59 and 1.40.

And the “RDA Mean, C. albicans” value ([2]; peptide 100 μM)?
Its value is 5.55.

And the “RDA Data (single replicates)” value ([2]; peptide 100 μM)?
The value was 5.30 and 5.74 and 5.62.

And the “Data (RDA antimicrobial activity, single replicates)” value ([3]; peptide 0.1 μM)?
The value was 0.

What about the “Mean (RDA antimicrobial activity)” value ([3]; peptide 0.1 μM) of the same substance?
The value was 0.00.

What about the “Data (RDA antimicrobial activity, single replicates)” value ([3]; peptide 0.5 μM) of the same substance?
The value was 0.14 and 0.85 and 0.17.

And the “Mean (RDA antimicrobial activity)” value ([3]; peptide 0.5 μM)?
The value was 0.39.

And the “Data (RDA antimicrobial activity, single replicates)” value ([3]; peptide 1 μM)?
Its value is 2.74 and 3.2 and 2.59.

And the “Mean (RDA antimicrobial activity)” value ([3]; peptide 1 μM)?
The value was 2.84.

And the “Data (RDA antimicrobial activity, single replicates)” value ([3]; peptide 5 μM)?
Its value is 2.97 and 3.58 and 3.2.

What about the “Mean (RDA antimicrobial activity)” value ([3]; peptide 5 μM) of the same substance?
Its value is 3.25.

What about the “Data (RDA antimicrobial activity, single replicates)” value ([3]; peptide 10 μM) of the same substance?
Its value is 5.67 and 5.68 and 5.48.

And the “Mean (RDA antimicrobial activity)” value ([3]; peptide 10 μM)?
Its value is 5.61.

And the “Data (RDA antimicrobial activity, single replicates)” value ([3]; peptide 50 μM)?
The value was 6.61 and 6.64 and 6.47.

And the “Mean (RDA antimicrobial activity)” value ([3]; peptide 50 μM)?
The value was 6.57.

And the “Data (RDA antimicrobial activity, single replicates)” value ([3]; peptide 100 μM)?
Its value is 7.8 and 8.04 and 8.12.

What about the “Mean (RDA antimicrobial activity)” value ([3]; peptide 100 μM) of the same substance?
The value was 7.99.
